Experimental data taken from patent US10328161B2, “Luciferin derivatives from bicyclic reactants and aminothiol derivatives and methods of use thereof” (The Regents of the University of California, priority 2012, dated 2019).
Values belong to the compound of their own block, whether it stands above or below them.

Columns and labels:
PC3M-luc cells [1] = experiment: Comparison of in situ luciferin formation and luciferin in PC3M-luc cells (intact and lysed); assay type: cell-based
Description: (§1) A Xenogen IVIS Spectrum instrument (Caliper Life Sciences, Hopkinton, Mass.) was used for bioluminescent imaging in all cellular experiments. PC3M-luc cells (kindly provided by Chris Contag, Stanford University) were cultured in Dulbecco's Modified Eagle Medium (DMEM) containing 10% Fetal Bovine Serum (FBS). Prior to assaying, cells were passed and plated (1.3-1.5×10^4 cells/well) in black 96-well plates with clear bottoms (Becton Dickinson and Company, Franklin Lakes, N.J.). Once the cells were ca. 95% confluent, reagents were added for bioluminescent assays.
PC3M-luc cells prepared as described above were washed with HBSS (25 mM glucose) prior to addition of HCBT and D-cysteine (0-500 μM, 1% DMSO) or luciferin (0-500 μM, 1% DMSO) in HBSS (25 mM glucose). For experiments with lysed cells, 100 μL Glo lysis buffer (Promega, Madison, Wis.) was incubated with the PC3M-luc cells for 5 min prior to addition of HCBT and D-cysteine or luciferin. The plates were immediately imaged for 2 h to determine the peak bioluminescent signal produced.

PC3M-luc cells [2] = experiment: Signal produced from endogenous L-cysteine in PC3M-luc cells; assay type: cell-based; settings: HCBT alone 0-50 μM
Description: as §1
PC3M-luc cells prepared as described above were washed with HBSS (25 mM glucose) prior to addition of HCBT and D-cysteine (0-50 μM, 1% DMSO) or HCBT alone (0-50 μM, 1% DMSO) in HBSS (25 mM glucose). The plate was immediately imaged for 2 h to determine the peak bioluminescent signal produced.

FVB-luc^+ mice [3] = experiment: Signal produced from endogenous L-cysteine in mice; assay type: in vivo; settings: HCBT 0.05 μmol IP without D-cysteine
Excerpt: (§2) A Xenogen IVIS Spectrum instrument (Caliper Life Sciences, Hopkinton, Mass.) was used for bioluminescent imaging in all animal experiments. Mice were anesthetized prior to injection and during imaging via inhalation of isoflurane. Phosphate Buffered Saline (PBS) was purchased from Thermo Fisher Scientific (Waltham, Mass.), and saline (0.9%) was made from sodium chloride and Millipore water. Isoflurane was purchased from Phoenix Pharmaceuticals, Inc. (St. Joseph, Mo.), and pharmaceutical grade DMSO was purchased from Sigma-Aldrich (St. Louis, Mo.). Medical grade oxygen was purchased from Praxair (Danbury, Conn.).
(§3) FVB-luc^+ (FVB-Tg(CAG-luc,-GFP)L2G85Chco/J) mice were bred at UC Berkeley, and were single or group-housed on a 12:12 light-dark cycle at 22° C. with free access to food and water. All studies were approved and performed according to the guidelines of the Animal Care and Use Committee of the University of California, Berkeley.
Unshaven, male FVB-luc+ mice were anesthetized with isoflurane and injected IP with D-cysteine (0.05 μmol, in 20 μL of PBS) or vehicle (20 μL PBS). After 2 min, mice were injected IP with HCBT (0.05 μmol in 50 μL of 1:1 DMSO:PBS). Following injections, mice were imaged with an IVIS Spectrum.

PC3M-luc cells [4] = experiment: Lifetime of HCBT and D-cysteine in PC3M-luc cells; assay type: cell-based; settings: 100 μM, 30 min incubation, wash, complementary reagent after 0-60 min
Description: as §1
The medium was removed from PC3M-luc cells prepared as described above, and HCBT (100 μM, 1% DMSO) or D-cysteine (100 μM, 1% PBS) in DMEM (-FBS) was added. After a 30 min incubation, the HCBT or D-cysteine was removed, the cells were washed with DMEM (-FBS), and fresh DMEM was added. After 0, 15, 30, 45, or 60 min, the second component of luciferin, D-cysteine (100 μM final concentration, 1% PBS) or HCBT (100 μM final concentration, 1% DMSO) in HBSS (25 mM glucose) was added, and the plate was immediately imaged for 2 h to determine the peak bioluminescent signal produced.

[5] = Selectivity assay for PCL-2: panel of various ROS; assay type: biochemical
Description: (§4) Millipore water was used to prepare all aqueous solutions. Luciferase (100 μg/mL) in 50 mM Tris buffer, pH 7.4, with 10 mM MgCl2, 0.1 mM ZnCl2, and 2 mM ATP was added to selectivity assay samples (described below) to determine the relative amount of luciferin formed during incubation. Measurements for bioluminescent assays were performed at 37° C. and were recorded using a Molecular Devices SpectraMax M2 plate reader (Sunnyvale, Calif.). Samples for bioluminescent measurements were placed in white, opaque 96-well plates, which were purchased from Corning Inc. (Corning, N.Y.). ATP was purchased from MP Biomedicals (Solon, Ohio) or Sigma-Aldrich (St. Louis, Mo.), and luciferase was purchased from Promega (Madison, Wis.). Caspase enzymes were purchased from Sigma-Aldrich (St. Louis, Mo.), and caspase inhibitors were purchased from MP Biomedicals (Solon, Ohio).
(§5) Various ROS (100 μM) were administered to PCL-2 or HCBT (5 μM) in Tris buffer (50 mM, pH 7.4) with or without 10 mM MgCl2 and 0.1 mM ZnCl2. […] After an additional 15 min incubation, 100 μL of a Tris buffer (50 mM, pH 7.4) containing luciferase (100 μg/mL), 10 mM MgCl2, 0.1 mM ZnCl2, and 2 mM ATP was added to 100 μL of the PCL-2 or HCBT solutions and the bioluminescent signal was detected.

[6] = Selectivity assay for PCL-2: response to H2O2; assay type: biochemical; settings: PCL-2 5 μM, H2O2 100 μM, 5-60 min, then D-cysteine and luciferase
Description: as §4, §5

[7] = Kinetic analysis of the PCL-2 and H2O2 reaction; assay type: physicochemical; settings: PCL-2 10 μM, H2O2 1, 2.5 or 5 mM, Tris buffer pH 8.5
Description: H2O2 (1, 2.5, or 5 mM) was added to PCL-2 (10 μM) in Tris buffer (pH 8.5) and absorbance measurements were recorded every 15-30 seconds over 5-20 minutes to determine the second order rate constant for the reaction. Measurements were taken at pH 8.5 to distinguish the HCBT peak, which shifts from 321 nm to 379 nm when it is deprotonated, from the PCL-2 peak (321 nm).

[8] = Concentration dependence of PCL-2 in aqueous solution; assay type: biochemical
Description: as §4
PCL-2 was incubated in Tris buffer (50 mM, pH 7.4) with various concentrations of H2O2 for 60 min prior to the addition of catalase (0.4 mg/mL), dithiothreitol (1 mM) and D-cysteine (20 μM). After an additional 15 min incubation, 100 μL of a Tris buffer (50 mM, pH 7.4) containing luciferase (100 μg/mL), 10 mM MgCl2, 0.1 mM ZnCl2, and 2 mM ATP was added to 100 μL of the PCL-2 solutions and the bioluminescent signal was detected.

PC3M-luc cells [9] = experiment: Concentration dependence of PCL-2 with PC3M-luc cells; assay type: cell-based; settings: PCL-2 25 μM, D-cysteine 25 μM
Description: as §1
The medium was removed from PC3M-luc cells prepared as described above, and PCL-2 (25 μM, 2.5% final DMSO concentration), D-cysteine (25 μM), and H2O2 (0-100 μM final concentrations) in DMEM (-FBS) were added. The plate was immediately imaged for 2 h to determine the peak bioluminescent signal produced from PCL-2.

[10] = Exogenous H2O2 experiments in mice; assay type: in vivo
Excerpt: as §2, §3
Unshaven, male FVB-luc^+ mice were anesthetized with isoflurane and injected IP with a mixture of PCL-2 and D-cysteine (0.05 μmol each, in 50 μL of 1:1 DMSO:PBS), followed immediately by an IP injection of H2O2 (0-4.5 μmol in 100 μL of PBS). Control mice were injected IP with a mixture of HCBT and D-cysteine (0.01 μmol each, in 50 μL of 1:1 DMSO:PBS) immediately prior to H2O2 (4.5 μmol in 100 μL of PBS). Following injections, mice were imaged with an IVIS Spectrum.

[11] = Lipopolysaccharide inflammation model, H2O2 detection with PCL-2; assay type: in vivo, mice; settings: LPS 3 mg/kg IP 6 h before PCL-2 and D-cysteine 0.05 μmol each
Excerpt: as §2, §3
Unshaven, female FVB-luc^+ mice, aged 2-5 months, were anesthetized with isoflurane and injected IP with lipopolysaccharides (LPS, 3 mg/kg in 50 μL of saline) or saline (50 μL). For studies with PCL-2 alone, mice were injected IP with either apocynin (10 mg/kg in 20 μL of DMSO) or DMSO (20 μL) 6 h after LPS injection. […]

FVB-luc^+ mice [12] = experiment: Comparison of in situ luciferin formation and luciferin in mice; assay type: in vivo; settings: 0.05 μmol luciferin IP
Excerpt: A Xenogen IVIS Spectrum instrument (Caliper Life Sciences, Hopkinton, Mass.) was used for bioluminescent imaging in all animal experiments. Mice were anesthetized prior to injection and during imaging via inhalation of isoflurane. Phosphate Buffered Saline (PBS) was purchased from Thermo Fisher Scientific (Waltham, Mass.), and saline (0.9%) was made from sodium chloride and Millipore water. Isoflurane was purchased from Phoenix Pharmaceuticals, Inc. (St. Joseph, Mo.), and pharmaceutical grade DMSO was purchased from Sigma-Aldrich (St. Louis, Mo.). Medical grade oxygen was purchased from Praxair (Danbury, Conn.). FVB-luc^+ (FVB-Tg(CAG-luc,-GFP)L2G85Chco/J) mice were bred at UC Berkeley, and were single or group-housed on a 12:12 light-dark cycle at 22° C. with free access to food and water. All studies were approved and performed according to the guidelines of the Animal Care and Use Committee of the University of California, Berkeley. Unshaven, male FVB-luc^+ mice were anesthetized with isoflurane and injected IP with D-[…].05 or 0.5 μmol, in 20 μL of PBS) or vehicle (20 μL PBS). After 2 min, mice were injected IP with HCBT (0.05 or 0.5 μmol in 50 μL of 1:1 DMSO:PBS) or luciferin (0.05 μmol in 50 μL of 1:1 DMSO:PBS). Following injections, mice were imaged with an IVIS Spectrum.

permeability across the cell membrane compared to luciferin (PC3M-luc cells [1]; inferred from intact versus lysed PC3M-luc cells): increased permeability
SMILES: N#Cc1nc2ccc(O)cc2s1 [HCBT, 2-Cyano-6-hydroxybenzothiazole]
bioluminescence from HCBT and endogenous L-cysteine compared to HCBT with D-cysteine (PC3M-luc cells [2]): negligible production of bioluminescence | bioluminescent signal from HCBT and endogenous L-cysteine compared to D-cysteine present (FVB-luc^+ mice [3]): negligible | cellular lifetime: signal as time between removal and addition of the complementary reagent increases (PC3M-luc cells [4]): decrease in luminescence | bioluminescence turn-on with the same panel of ROS ([5]; HCBT 5 μM, ROS 100 μM incl. H2O2, 60 min): no bioluminescence turn-on

SMILES: N#Cc1nc2ccc(OCc3ccc(B(O)O)cc3)cc2s1 [PCL-2, 4-((2-Cyanobenzo[d]thiazol-6-yloxy)methyl)phenylboronic acid]
increase in bioluminescence in the presence of H2O2 [6]: ca. 50 fold | response to other ROS ([5]; 5 μM probe, ROS 100 μM (TBHP, hypochlorite, NO, OH, OtBu, O2-)): negligible response | second-order rate constant k for the PCL-2 and H2O2 reaction [7]: 2.7 M⁻¹ s⁻¹ | range of linear response to H2O2 ([8]; PCL-2 5 μM, 60 min, aqueous solution): 1-100 μM H2O2 | detection limit for H2O2 ([8]; in vitro summary statement): low micromolar | range of linear response to H2O2 in cellulo (PC3M-luc cells [9]): 0-100 μM H2O2 | Turn-on ([10]; H2O2 0.5 μmol, PCL-2 0.05 μmol): 2.8-fold | detection limit for H2O2 in vivo ([10]; IP, FVB-luc^+ mice, optimized imaging conditions for each probe): ca. 0.5 μmol | turn-on in response to LPS stimulation [11]: ca. 3.7 fold

SMILES: O=C(O)[C@H]1CSC(c2nc3ccc(O)cc3s2)=N1 [luciferin]
bioluminescent signal, luciferin versus HCBT/D-cysteine (PC3M-luc cells [1]; intact PC3M-luc cells, lower concentrations (0-500 μM range)): greater signal than HCBT/D-cysteine | brightness of signal relative to 0.05 μmol HCBT/D-cysteine (FVB-luc^+ mice [12]): ca. 40 fold
